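Abbreviation: GI50, concentration required for 50% inhibition of growth. TGI: concentration producing complete growth inhibition.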
Key:
Test in all cases: NCI tumour cell line growth inhibition, 384-well format
HOP-62 NSCLC = tested on: HOP-62 NSCLC
MDA-MB-468 breast = tested on: MDA-MB-468 breast
HT29 colon = tested on: HT29 colon
786-0 renal = tested on: 786-0 renal
A549 NSCLC = tested on: A549 NSCLC
SF-295 CNS = tested on: SF-295 CNS
NCI-H460 NSCLC = tested on: NCI-H460 NSCLC
HL-60(TB) leukemia = tested on: HL-60(TB) leukemia
MCF7 breast = tested on: MCF7 breast
SK-OV-3 ovarian = tested on: SK-OV-3 ovarian
NCI-H226 lung = tested on: NCI-H226 lung
IGROV1 ovarian = tested on: IGROV1 ovarian
OVCAR-3 ovarian = tested on: OVCAR-3 ovarian
DU-145 prostate = tested on: DU-145 prostate
K-562 leukemia = tested on: K-562 leukemia
HCC-2998 colon = tested on: HCC-2998 colon
A498 renal = tested on: A498 renal
ACHN renal = tested on: ACHN renal
SN12C renal = tested on: SN12C renal
OVCAR-5 ovarian = tested on: OVCAR-5 ovarian
MOLT-4 leukemia = tested on: MOLT-4 leukemia
T-47D breast = tested on: T-47D breast
CCRF-CEM leukemia = tested on: CCRF-CEM leukemia
NCI-H23 lung = tested on: NCI-H23 lung
SNB-19 CNS = tested on: SNB-19 CNS
CAKI-1 renal = tested on: CAKI-1 renal
MDA-MB-435 melanoma = tested on: MDA-MB-435 melanoma
RPMI-8226 leukemia = tested on: RPMI-8226 leukemia
OVCAR-4 ovarian = tested on: OVCAR-4 ovarian
MALME-3M melanoma = tested on: MALME-3M melanoma
HOP-92 NSCLC = tested on: HOP-92 NSCLC
SK-MEL-28 melanoma = tested on: SK-MEL-28 melanoma
SK-MEL-5 melanoma = tested on: SK-MEL-5 melanoma
KM12 colon = tested on: KM12 colon
M14 melanoma = tested on: M14 melanoma
BT-549 breast = tested on: BT-549 breast
NCI-H322M lung = tested on: NCI-H322M lung
HCT-116 colon = tested on: HCT-116 colon
SF-539 CNS = tested on: SF-539 CNS
SR leukemia = tested on: SR leukemia
SF-268 CNS = tested on: SF-268 CNS
HCT-15 colon = tested on: HCT-15 colon
UACC-257 melanoma = tested on: UACC-257 melanoma
SW-620 colon = tested on: SW-620 colon
UACC-62 melanoma = tested on: UACC-62 melanoma
COLO 205 colon = tested on: COLO 205 colon
MDA-MB-231 breast = tested on: MDA-MB-231 breast
SK-MEL-2 melanoma = tested on: SK-MEL-2 melanoma
NCI-H522 lung = tested on: NCI-H522 lung
UO-31 renal = tested on: UO-31 renal
U251 glioblastoma = tested on: U251 glioblastoma
NCI/ADR-RES ovarian = tested on: NCI/ADR-RES ovarian
LOX IMVI melanoma = tested on: LOX IMVI melanoma
OVCAR-8 ovarian = tested on: OVCAR-8 ovarian
TK-10 renal = tested on: TK-10 renal
PC-3 prostate = tested on: PC-3 prostate
RXF 393 renal = tested on: RXF 393 renal

O=C(NS(=O)(=O)c1ccc(NC[C@H]2COCCO2)c([N+](=O)[O-])c1)c1ccc(N2CCN(CC3=C(c4ccc(Cl)cc4)CC4(CCC4)CC3)CC2)cc1Oc1cnc2[nH]ccc2c1
GI50 (HOP-62 NSCLC): 2.24 µM | TGI (HOP-62 NSCLC): 5.19 µM | GI50 (MDA-MB-468 breast): 1.83 µM | TGI (MDA-MB-468 breast): 3.86 µM | GI50 (HT29 colon): 2.32 µM | TGI (HT29 colon): 5.17 µM | GI50 ([…]-0 renal): 2.41 µM | TGI (786-0 renal): 6.75 µM | GI50 (A549 NSCLC): 2.34 µM | TGI (A549 NSCLC): 7.54 µM | GI50 (SF-295 CNS): 1.39 µM | TGI (SF-295 CNS): 3.24 µM | GI50 (NCI-H460 NSCLC): 1.65 µM | TGI (NCI-H460 NSCLC): 3.98 µM | GI50 (HL-60(TB) leukemia): 0.0239 µM | TGI (HL-60(TB) leukemia): 1.24 µM | GI50 (MCF7 breast): 2.65 µM | TGI (MCF7 breast): 8.8 µM | GI50 (SK-OV-3 ovarian): 2.91 µM | TGI (SK-OV-3 ovarian): 7.58 µM | GI50 (NCI-H226 lung): 1.98 µM | TGI (NCI-H226 lung): 4.2 µM | GI50 (IGROV1 ovarian): 1.84 µM | TGI (IGROV1 ovarian): 4.31 µM | GI50 (OVCAR-3 ovarian): 2 µM | TGI (OVCAR-3 ovarian): 3.91 µM | GI50 (DU-145 prostate): 2.82 µM | TGI (DU-145 prostate): 7.77 µM | GI50 (K-562 leukemia): 3.32 µM | TGI (K-562 leukemia): 11.1 µM | GI50 (HCC-2998 colon): 1.81 µM | TGI (HCC-2998 colon): 3.37 µM | GI50 (A498 renal): 1.86 µM | TGI (A498 renal): 5.09 µM | GI50 (ACHN renal): 2.37 µM | TGI (ACHN renal): 6.63 µM | GI50 (SN12C renal): 2.52 µM | TGI (SN12C renal): 7.27 µM | GI50 (OVCAR-5 ovarian): 2.15 µM | TGI (OVCAR-5 ovarian): 4.28 µM | GI50 (MOLT-4 leukemia): 0.814 µM | TGI (MOLT-4 leukemia): 2.08 µM | GI50 (T-47D breast): 2.92 µM | TGI (T-47D breast): 9.74 µM | GI50 (CCRF-CEM leukemia): 1.34 µM | TGI (CCRF-CEM leukemia): 2.64 µM | GI50 (NCI-H23 lung): 1.89 µM | TGI (NCI-H23 lung): 4.05 µM | GI50 (SNB-19 CNS): 3.97 µM | TGI (SNB-19 CNS): 14.7 µM | GI50 (CAKI-1 renal): 2.17 µM | TGI (CAKI-1 renal): 5.11 µM | GI50 (MDA-MB-435 melanoma): 2.38 µM | TGI (MDA-MB-435 melanoma): 5.03 µM | GI50 (RPMI-8226 leukemia): 1.02 µM | TGI (RPMI-8226 leukemia): 2.18 µM | GI50 (OVCAR-4 ovarian): 2.64 µM | TGI (OVCAR-4 ovarian): 6.47 µM | GI50 (MALME-3M melanoma): 2.28 µM | TGI (MALME-3M melanoma): 4.37 µM | GI50 (HOP-92 NSCLC): 1.56 µM | TGI (HOP-92 NSCLC): 3.1 µM | GI50 (SK-MEL-28 melanoma): 2.53 µM | TGI (SK-MEL-28 melanoma): 5.49 µM | GI50 (SK-MEL-5 melanoma): 1.81 µM | TGI (SK-MEL-5 melanoma): 3.33 µM | GI50 (KM12 colon): 2.51 µM | TGI (KM12 colon): 6.15 µM | GI50 (M14 melanoma): 2.1 µM | TGI (M14 melanoma): 4.14 µM | GI50 (BT-549 breast): 2.63 µM | TGI (BT-549 breast): 5.74 µM | GI50 (NCI-H322M lung): 2.79 µM | TGI (NCI-H322M lung): 6.65 µM | GI50 (HCT-116 colon): 2.3 µM | TGI (HCT-116 colon): 5.47 µM | GI50 (SF-539 CNS): 1.97 µM | TGI (SF-539 CNS): 4.22 µM | GI50 (SR leukemia): 1.13 µM | TGI (SR leukemia): 2.35 µM | GI50 (SF-268 CNS): 3.32 µM | TGI (SF-268 CNS): 8.91 µM | GI50 (HCT-15 colon): 2.02 µM | TGI (HCT-15 colon): 4.07 µM | GI50 (UACC-257 melanoma): 2.17 µM | TGI (UACC-257 melanoma): 4.31 µM | GI50 (SW-620 colon): 3.96 µM | TGI (SW-620 colon): 12.9 µM | GI50 (UACC-62 melanoma): 1.96 µM | TGI (UACC-62 melanoma): 3.78 µM | GI50 (COLO 205 colon): 2.26 µM | TGI (COLO 205 colon): 4.27 µM | GI50 (MDA-MB-231 breast): 2.06 µM | TGI (MDA-MB-231 breast): 4.32 µM | GI50 (SK-MEL-2 melanoma): 1.99 µM | TGI (SK-MEL-2 melanoma): 3.69 µM | GI50 (NCI-H522 lung): 3 µM | TGI (NCI-H522 lung): 7.32 µM | GI50 (UO-31 renal): 2.1 µM | TGI (UO-31 renal): 4.75 µM | GI50 (U251 glioblastoma): 2.34 µM | TGI (U251 glioblastoma): 5.35 µM | GI50 (NCI/ADR-RES ovarian): 4.66 µM | TGI (NCI/ADR-RES ovarian): 16.7 µM | GI50 (LOX IMVI melanoma): 2.8 µM | TGI (LOX IMVI melanoma): 5.3 µM | GI50 (OVCAR-8 ovarian): 2.99 µM | TGI (OVCAR-8 ovarian): 9.88 µM | GI50 (TK-10 renal): 2.69 µM | TGI (TK-10 renal): 8.48 µM | GI50 (PC-3 prostate): 2.12 µM | TGI (PC-3 prostate): 5.15 µM | GI50 (RXF 393 renal): 1.34 µM | TGI (RXF 393 renal): 2.94 µM
